Measurements reported in PubChem BioAssay (NCI).
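All cell lines were grown in 96-well plates and treated with compound for 48 hours. GI50: concentration for 50% inhibition of growth. TGI denotes the concentration required for complete inhibition of growth.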

Assays:
Experiment in all cases: inhibition of tumour cell growth, NCI panel, 48 h
SNB-75 CNS = system: SNB-75 CNS
NCI-H226 lung = system: NCI-H226 lung
HT29 colon = system: HT29 colon
SNB-19 CNS = system: SNB-19 CNS
OVCAR-5 ovarian = system: OVCAR-5 ovarian
MALME-3M melanoma = system: MALME-3M melanoma
SF-539 CNS = system: SF-539 CNS
OVCAR-8 ovarian = system: OVCAR-8 ovarian
RXF 393 renal = system: RXF 393 renal
NCI-H522 lung = system: NCI-H522 lung

Row | SMILES | GI50 (SNB-75 CNS) | TGI (SNB-75 CNS) | GI50 (NCI-H226 lung) | TGI (NCI-H226 lung) | GI50 (HT29 colon) | TGI (HT29 colon) | GI50 (SNB-19 CNS) | TGI (SNB-19 CNS) | GI50 (OVCAR-5 ovarian) | TGI (OVCAR-5 ovarian) | GI50 (MALME-3M melanoma) | TGI (MALME-3M melanoma) | GI50 (SF-539 CNS) | TGI (SF-539 CNS) | TGI (OVCAR-8 ovarian) | TGI (RXF 393 renal) | GI50 (NCI-H522 lung) | TGI (NCI-H522 lung) | GI50 (OVCAR-8 ovarian) | GI50 (RXF 393 renal)
1 | C[n+]1c2ccccc2nc2c(N)cc(N)cc21 | 5.2 µM | 18.7 µM | 8.41 µM | > 100 µM | 15.3 µM | > 100 µM | 2.9 µM | 14.4 µM | > 100 µM | > 100 µM | 2.39 µM | 9.77 µM | 5.41 µM | 32.2 µM |  |  |  |  |  | 
2 | CCCC(S(=O)(=O)c1ccccc1)S(=O)(=O)c1ccccc1 |  | > 100 µM |  | > 100 µM |  | > 100 µM |  |  |  | > 100 µM |  | > 100 µM |  | > 100 µM | > 100 µM | > 100 µM |  |  |  | 
3 | COc1cc2ncc3c(nc4sccn43)c2cc1OC |  |  |  |  | 69.7 µM | > 100 µM | 47.2 µM | > 100 µM | 26.8 µM | 60.5 µM | 5.86 µM | 32.6 µM | 15.6 µM | 55.2 µM | > 100 µM | > 100 µM | 86.1 µM | > 100 µM | 38.1 µM | > 100 µM
4 | N#CCN1C(=O)c2cc([N+](=O)[O-])cc3cc([N+](=O)[O-])cc(c23)C1=O |  | 84.8 µM |  | 49.9 µM |  | > 69.2 µM |  | > 100 µM |  | 36.1 µM |  | 28 µM |  | 31.8 µM | 56.4 µM | 21.3 µM |  |  |  | 
5 | O=C(NNS(=O)(=O)c1ccc(Cl)cc1Cl)c1cccnc1Nc1ccc(Cl)cc1 | 22.4 µM | 84.4 µM | 23.9 µM | 58.5 µM | 22.8 µM | 54.2 µM | 27 µM | > 100 µM | 26.2 µM | 78.2 µM | 11.1 µM | 34.9 µM | 19 µM | 44.5 µM | 74.9 µM | 43.8 µM |  |  | 26.7 µM | 16.9 µM
6 | O=C(O)c1ccccc1NC(=S)c1ccccc1 |  |  |  |  |  | > 100 µM |  | > 100 µM |  | > 100 µM |  | 65.9 µM |  | > 100 µM | > 100 µM | > 100 µM |  | 39.8 µM |  | 
7 | C/C(=N\O)c1cccc(Nc2cc(-n3ccnc3)c3ccccc3n2)c1 | 11.4 µM | 26.8 µM | 3.59 µM | 20.9 µM | 14.7 µM | 49.4 µM | 17.5 µM | 43.6 µM | 20.9 µM | 40.9 µM | 11.1 µM | 25.3 µM | 17.2 µM | 33.5 µM |  |  | 14.3 µM | 30.7 µM |  | 
8 | COc1ccc(OC(=O)CC2Cc3cc(OC)c(OC)c(OC)c3-c3ccc(SC)c(=O)cc32)cc1 (stereo unspecified) |  | > 100 µM |  | 0.782 µM |  | > 100 µM |  | > 100 µM |  |  |  | > 100 µM |  | 0.54 µM | > 37.1 µM |  |  | 0.527 µM |  | 
9 | C[CH2][Hg][S]c1ccccc1C(=O)O | 2.98 µM | 10.8 µM |  |  |  |  | 2.98 µM | 12.3 µM | 1.77 µM | 3.26 µM | 0.801 µM | 2.25 µM | 1.7 µM | 3.32 µM |  |  |  |  |  | 
10 | CC(=O)O[C@@H]1C[C@@]2(C)[C@@H]3CC=C4[C@@H](C[C@H](O)C(=O)C4(C)C)[C@]3(C)C(=O)C[C@]2(C)[C@H]1[C@@](C)(O)C(=O)/C=C/C(C)(C)OC(C)=O |  | 25.3 µM |  | 3.31 µM |  | > 100 µM |  | 7.38 µM |  | > 86 µM |  |  |  | 12.6 µM | > 49.1 µM |  |  | 4.55 µM |  | 
11 | Cc1cc(=O)c2c(O)cc3c(c2o1)CC=C(COC1OC(COC2OC(CO)C(O)C(O)C2O)C(O)C(O)C1O)CO3 (stereo unspecified) |  | > 100 µM |  | > 100 µM |  |  |  | > 100 µM |  | > 100 µM |  | > 100 µM |  | > 100 µM | > 100 µM |  |  | > 100 µM |  | 
12 | O=C(NCCNCCO)c1cccc2ccc(-c3ccccc3)nc12 |  | 22.3 µM |  | 17.4 µM |  | 14.6 µM |  | 28.7 µM |  | 18.2 µM |  |  |  | 13 µM | 19.5 µM | 15.5 µM |  |  |  | 
13 | NNc1nnc(-c2nnc(NN)o2)o1 |  |  |  | > 10 µM |  | > 10 µM |  | > 10 µM |  | > 10 µM |  | > 10 µM |  | > 10 µM | > 10 µM | > 10 µM |  |  |  | 
14 | Cc1ccc(C2C3Cc4ccccc4C3=NN2c2ccc(S(=O)(=O)/N=c3\scc(-c4ccccc4)n3-c3ccccc3)cc2)cc1 (stereo unspecified) |  |  | 21.4 µM | 67.2 µM |  |  | 64.8 µM | > 100 µM |  |  |  |  | 19.5 µM | 37.3 µM | 58.5 µM | 64.6 µM | 22 µM | 66.8 µM | 21.9 µM | 24.8 µM
